Results from patent US20120328602A1, “COMPOSITIONS AND METHODS FOR TREATING CONDITIONS ASSOCIATED WITH CERAMIDE BIOSYNTHESIS” (priority 2007, published 2012).
Read-outs that look alike come from different tables or passages of the source.

Assays:
neutral SMase = settings: at 5 mM GSH; cited from earlier work
acid SMase = target: T1, acid SMase (Homo sapiens, UniProt P17405); settings: at 30 μM; cited from earlier work
T1 sequence (P17405 47-631): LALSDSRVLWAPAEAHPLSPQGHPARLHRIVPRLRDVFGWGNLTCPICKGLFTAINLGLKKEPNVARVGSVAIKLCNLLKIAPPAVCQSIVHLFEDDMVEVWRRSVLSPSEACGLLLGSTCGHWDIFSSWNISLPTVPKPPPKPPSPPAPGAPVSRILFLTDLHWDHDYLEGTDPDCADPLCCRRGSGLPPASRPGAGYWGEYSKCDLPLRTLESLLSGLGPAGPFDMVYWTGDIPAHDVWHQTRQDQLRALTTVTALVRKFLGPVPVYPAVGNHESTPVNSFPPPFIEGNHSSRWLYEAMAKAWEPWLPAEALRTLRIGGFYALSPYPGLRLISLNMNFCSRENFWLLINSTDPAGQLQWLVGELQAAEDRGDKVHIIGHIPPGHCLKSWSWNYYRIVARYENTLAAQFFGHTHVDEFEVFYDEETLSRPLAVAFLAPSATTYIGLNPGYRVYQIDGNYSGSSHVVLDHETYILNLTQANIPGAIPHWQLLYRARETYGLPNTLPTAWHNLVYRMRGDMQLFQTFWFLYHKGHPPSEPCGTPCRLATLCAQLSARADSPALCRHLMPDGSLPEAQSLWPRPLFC

mice [1] = assay: hot plate, morphine-induced antinociceptive tolerance (Examples 3-5); type: in vivo, Male CD-1 mice; settings: for development of tolerance, dose-dependence: co-administered with morphine, FB1 0.1-1 mg/kg/d, myriocin 0.1-0.4 mg/kg/d, D609 10-40 mg/kg/d; for development of tolerance, dose-dependence / hot plate latencies following s.c. saline / difference in responses to acute morphine (0.3-3 mg/kg), drug vs vehicle: n=10; for hot plate latencies following s.c. saline: day five, highest dose of drug, no morphine; for difference in responses to acute morphine (0.3-3 mg/kg), drug vs vehicle: highest dose over five days: FB1 1 mg/kg/d, myriocin 0.4 mg/kg/d, D609 40 mg/kg/d; for antinociceptive effects when tested alone: highest dose; for % MPE: tolerant mice, single i.p. dose fifteen minutes before acute morphine 3 mg/kg: FB1 1 mg/kg, myriocin 0.4 mg/kg, D609 40 mg/kg, n=6
Procedure: Nociceptive thresholds were determined by measuring latencies (in seconds) of mice placed in a transparent glass cylinder on a hot plate (Ugo Basile, Italy) maintained at 52° C. Determination of antinociception was assessed between 7 and 10:00 A.M. All injections were given intra-peritoneally (i.p.) or subcutaneously (s.c.) in a volume of 0.1 and 0.3 ml, respectively, at approximately 7 A.M. and 4 P.M. Responses indicative of nociception included intermittent lifting and/or licking of the hindpaws or escape behavior. […] Results were expressed as percentage of maximum possible antinociceptive effect, which was calculated as follows: (response latency−baseline latency)/(cut-off latency−baseline latency)×100. A cut-off latency of twenty seconds was employed to prevent tissue damage. Ten mice per group were used and all experiments were conducted with the experimentors blinded to treatment conditions. […] The following experimental groups were used: […]
Vehicle (V) Group: In this group, mice were injected twice per day for four days with an i.p, injection of saline and a s.c. injection of saline.

mice [2] = assay: Rotarod motor function test; type: in vivo; settings: myriocin 0.4 mg/kg, FB1 1 mg/kg, D609 40 mg/kg; fifteen, thirty, and sixty minutes after administration; n=4; vs vehicle
Procedure: Mice were trained before experimentation for their ability to remain for one-hundred twenty seconds on a revolving Rotarod apparatus (accelerating units increase from 3.5 to 35 rpm in five minutes). Mice (n=4 per group) were injected with an i.p. injection of the highest dose of FB1 (1 mg/kg), myriocin (0.4 mg/kg), D609 (40 mg/kg) used to block antinociceptive tolerance or its vehicle. Mice (n=4 per group) were tested and examined for motor […] on the Rotarod at fifteen, thirty, and sixty minutes after drug administration as described in the method section. The latency time to fall off the Rotarod was determined. A cut-off time of one-hundred twenty seconds was used.

ceramide = assay: immunohistochemistry for ceramide in spinal cord (Example 3); settings: co-administered with morphine; FB1 1 mg/kg/d, myriocin 0.4 mg/kg/d, D609 40 mg/kg/d
mice [3] = type: in vivo; settings: for responses to acute morphine in control groups vs control groups treated with drug: no repeated morphine; for development of antinociceptive tolerance: co-administration with morphine, i.p., FB1 1 mg/kg, myriocin 0.2 mg/kg, D609 40 mg/kg; for antinociceptive effects when tested alone: drug alone (not shown)
[4] = target: T2, acid sphingomyelinase (ASMase) (Mus musculus, UniProt Q04519); assay: sphingomyelinase activity in spinal cord tissues, acid isoforms (Amplex Red kit); type: in vivo, mice; settings: D609 40 mg/kg/d co-administered with morphine
T2 construct: spinal cord tissues were homogenized in buffers for each specific assay; from tissue; host or cells: mouse spinal cord homogenate (Na acetate pH 5.0 lysis buffer)
T2 sequence (Q04519 45-627): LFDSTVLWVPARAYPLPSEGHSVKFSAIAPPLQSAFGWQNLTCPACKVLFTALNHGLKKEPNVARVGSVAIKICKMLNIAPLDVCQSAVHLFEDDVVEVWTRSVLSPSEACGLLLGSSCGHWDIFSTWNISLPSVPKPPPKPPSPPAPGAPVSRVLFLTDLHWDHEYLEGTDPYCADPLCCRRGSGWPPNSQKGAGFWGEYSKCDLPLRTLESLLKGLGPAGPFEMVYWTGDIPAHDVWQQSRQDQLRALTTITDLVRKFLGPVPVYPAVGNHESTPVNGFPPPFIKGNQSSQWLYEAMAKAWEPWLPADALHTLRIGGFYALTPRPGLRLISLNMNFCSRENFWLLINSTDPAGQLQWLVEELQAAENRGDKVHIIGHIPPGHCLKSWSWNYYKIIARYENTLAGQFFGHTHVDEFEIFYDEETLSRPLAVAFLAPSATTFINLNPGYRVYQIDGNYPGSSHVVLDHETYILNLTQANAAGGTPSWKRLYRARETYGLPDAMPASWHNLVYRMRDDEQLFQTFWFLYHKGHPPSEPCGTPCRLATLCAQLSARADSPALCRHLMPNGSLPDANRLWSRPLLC
Procedure: Sphingomyelinase activity was measure using Amplex® Red Sphingomyelinase Assay Kit (Molecular Probes, Eugene, Oreg.) following manufacturer's instructions. […] For the acid isoforms, Na acetate (100 mM and pH 5.0) lysis buffer was used. 2 mM EDTA was added to the lysis buffer for detection of the insoluble isoform. For neutral isoform detection, the tissues were homogenized in Hepes (20 mM, pH 7.4) lysis buffer. The kinetics for sphingomyelinase activity was measured in a fluorescence microplate reader for two hours followed by normalization per protein concentration of the sample. Hydrogen peroxide and sphingomyelinase were used as positive controls.

[5] = test system: serine palmitoyl transferase (SPT); assay: serine palmitoyl transferase (SPT) activity; type: in vivo, mice; settings: co-administration of morphine with myriocin 0.4 mg/kg/d, n=10
Procedure: SPT activity was determined by measuring the incorporation of [^3H] serine into 3-ketosphinganine following the method previously described (Williams et al., 1984). The results were normalized by the samples' protein concentration.

Row | SMILES | inhibition of neutral SMase (neutral SMase) | inhibition of acid SMase (acid SMase) [%] | development of tolerance, dose-dependence (mice [1]) | hot plate latencies following s.c. saline (mice [1]) | difference in responses to acute morphine (0.3-3 mg/kg), drug vs vehicle (mice [1]) | antinociceptive effects when tested alone (mice [1]) | % MPE (mice [1]) [%] | Rotarod motor function deficits (mice [2]) | ceramide immunostaining (ceramide) | responses to acute morphine in control groups vs control groups treated with drug (mice [3]) | development of antinociceptive tolerance (mice [3]) | antinociceptive effects when tested alone (mice [3]) | increased activity of ASMase [4] | activation of SPT [5]
1 | N[C@@H](CCC(=O)N[C@@H](CS)C(=O)NCC(=O)O)C(=O)O [Glutathione] | greater than 95% | – | – | – | – | – | – | – | – | – | – | – | – | –
2 | COc1ccc(CCN(C)CCCOc2ccc(S(=O)(=O)c3c(C(C)C)cn4ccccc34)cc2)cc1OC [SR33557] | – | 72 | – | – | – | – | – | – | – | – | – | – | – | –
3 | S=C([S-])OC1CC2CC1C1CCCC21.[K+] (stereo not drawn) [D609, tricyclodecan-9-xanthogenate] | – | – | blocked in a dose-dependent manner | six and seven | statistically insignificant | none of FB1, myriocin, or D609 had antinociceptive effects | 11±2 | did not show signs of Rotarod deficits | blocked | similar | blocked antinociceptive tolerance | no antinociceptive effects | blocked the increased activity of ASMase | –
4 | CCCCCCC(=O)CCCCCC/C=C/C[C@@H](O)[C@H](O)[C@@](N)(CO)C(=O)O [myriocin] | – | – | blocked | six and seven | statistically insignificant | none of FB1, myriocin, or D609 had antinociceptive effects | 13±2 | did not show signs of Rotarod deficits | blocked | similar | blocked antinociceptive tolerance | no antinociceptive effects | – | blocked, as expected, the activation of SPT
